This is an account of results in patent publication US20130085157A1, “ARYLSUBSTITUTED THIAZOLOTRIAZOLES AND THIAZOLOIMIDAZOLES” (priority 2011, published 2013).

In the assay the target is T1, human TGR5 bile acid receptor (Homo sapiens, UniProt Q8TDU6).
T1 construct: The full length TGR5 gene is inserted into pCMV6 vector DNA (Origene); expressed in transfected cells
T1 sequence (Q8TDU6 1-330): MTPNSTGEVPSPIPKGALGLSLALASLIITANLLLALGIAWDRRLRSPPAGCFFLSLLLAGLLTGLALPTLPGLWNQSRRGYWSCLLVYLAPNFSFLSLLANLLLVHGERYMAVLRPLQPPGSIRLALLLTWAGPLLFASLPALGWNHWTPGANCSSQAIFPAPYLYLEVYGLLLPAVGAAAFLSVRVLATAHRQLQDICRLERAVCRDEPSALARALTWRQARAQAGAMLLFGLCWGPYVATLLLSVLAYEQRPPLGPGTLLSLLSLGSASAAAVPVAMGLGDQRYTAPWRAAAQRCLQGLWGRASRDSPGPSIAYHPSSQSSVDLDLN
Put plainly: TGR5 receptor activation, HTRF cAMP assay in 293/humanTGR5 cells. Type of assay: cell-based. As to conditions: activation of 293/humanTGR5 (HEK 293) cells measured by cAMP levels, 30 minutes at 37° C., relative to vehicle and 50 μM of Compound 7. How it is done:
Transformed E. coli stocks containing cDNA for the full length human TGR5 bile acid receptor (IMAGE clone #5221127) are obtained from Open Biosystems. Cultures are grown in LB broth, and cDNA is purified using Qiagen mini-prep columns. The full length TGR5 gene is inserted into pCMV6 vector DNA (Origene) by ligation followed by transformation in competent E. coli. Ampicillin-resistant clones are isolated and vector DNA containing the TGR5 gene is verified by DNA sequence analysis (Sequetech). The resulting plasmid is transfected into HEK 293 cells using FuGene 6 transfection reagent and the transfected cells are grown in the presence of 1 mg/mL G418 selection antibiotic. A number of individual G418 resistant colonies are isolated by using 150 μL cloning cylinders. The resulting 293/humanTGR5 expressing cell lines are then screened for responsiveness to the natural ligand lithocholic acid. A single clone is chosen for expansion and use for screening, this clone reproducibly responds to known receptor agonists for over 30 passages. The 293/humanTGR5 cells are maintained in DMEM/F12 media supplemented with 10% fetal bovine serum (Hyclone) and 15 mM HEPES buffer (Invitrogen). Cells are passaged twice weekly and maintained at densities to assure logarithmic growth. For use in cAMP assays, cells are trypsinzied, centrifuged, and resuspended in DMEM/F12 media supplemented with 0.5% FBA and 15 mM HEPES buffer. These cells are adjusted to a density which allows distribution of 25,000 cells in 20 μL of volume to each well of a half-area 96-well plate (Greiner Bio-One). 20 μL of test compounds diluted to a 2× concentration in DMEM/F12 media with 0.5% FBS are then added to the 96-well plates, and the plates are then incubated for 30 minutes at 37° C. in a 5% CO2 atmosphere. Levels of resulting cAMP for each treatment condition are then determined by use of an HTRF cAMP assay (CisBio) following the manufactures directions. The resulting data is analyzed using IDBX XLfit software and IC50 determinations are made for each test compound by comparing cAMP levels to vehicle controls (unstimulated) and TGR5 agonist-activated cells (50 μM of Compound 7, a reported TGR5 receptor agonist, J. Med. Chem., 2009, 52 (24), pp 7962-7965). Specificity for human TGR5 agonist activity is confirmed for compounds of interest by testing them against cell lines over expressing the mouse TGR5 receptor, human GPR119 receptor, and parent cell lines followed by measurement of resulting cAMP levels. Assay responsiveness is controlled for by measuring cAMP levels induced by 50 μM Forskolin in cells, a known adenylyl […] activator.

pEC50: −log10 of the molar value.

The compound `c1ccc(-c2csc3nnc(SCc4ccc5c(c4)OCO5)n23)cc1` [Example 6, 3-(1,3-Benzodioxol-5-ylmethylsulfanyl)-5-phenyl-thiazolo[2,3-c][1,2,4]triazole] gave a pEC50 of 4.30 to 5.30.
